Measurements as given in US20050038062A1, “Methods and materials for the treatment of pain comprising opioid antagonists” (priority 2003, published 2005).
Entries after “also recorded” stand apart in the source; their conditions may differ.

Experiments:
[1] = test system: rats with L5/L6 spinal nerve ligation (SNL); test: thermal hyperalgesia: paw-withdrawal latency to radiant heat, rat L5/L6 spinal nerve ligation (SNL) model; assay type: in vivo; conditions: intrathecal twice daily
Experimental: (§1) This example describes an evaluation of neuropathic pain in an animal model. An in vivo rat L5/L6 spinal nerve ligation (SNL) study is conducted as described by Kim and Chung (1992). These in vivo experiments to evaluate neuropathic pain with compounds and compositions according to the invention as prescribed herein are conducted on male Sprague-Dawley rats (Harlan; Indianapolis, Ind.) that are 200-225 g at the time of the L5/L6 surgery as described below. The rats are maintained in a climate-controlled room on a 12-h light/dark cycle (lights on at 06:00 h); food and water are provided ad libiturn. The testing is performed in accordance with accepted policies and guidelines for the handling and use of laboratory animals.
In an initial study, the effects of intrathecally delivered morphine and naloxone or morphine alone are tested after ligation of the L5 and L6 spinal nerves in rats. At one week, after a neuropathic pain syndrome of thermal hyperalgesia and tactile allodynia is stabilized, rats receive daily intrathecal injections of vehicle, morphine alone, morphine plus naloxone or naloxone alone for seven days. […] The animals first undergo intrathecal implantation of a catheter that allows for drug delivery at the lumbar (L5) spinal cord region. Animal baseline withdrawals from thermal and tactile stimuli are recorded. Animals then undergo the L5/L6 ligation surgery as described below and are tested for tactile and thermal hypersensitivities, for example, on day 3 through day 7 after the surgery, and then, for example, on day 8, animals begin the twice daily intrathecal administration of vehicle or drug substances in doses as described below. Animals are tested, for example, from about 20 to about 30 minutes after the first daily intrathecal dose for hyperalgesic and anti-allodynia effects for a total of 7 days as described below.
While under halothane anesthesia, an 8 cm length of 32 gauge tubing is inserted in the Sprague-Dawley rats to the level of the lumbar enlargement via an incision made in the atlanto-occipital membrane. The catheter is then secured to the musculature at the site of incision, which is then closed. The rats receive 4.4 mg/kg of gentamycin (intramuscular administration) as a prophylactic precaution and are allowed 5-7 days for recovery before experimentation begins, for example, before L5/L6 ligation surgery begins as described below. […] Intrathecally administered substances are dissolved in saline (to a total volume of 5 μl) prior to administration through a length of tubing connecting the intrathecal catheter with the injection syringe. Progress of the injection is determined by observing the movement of an air bubble through a calibrated length of the tubing. The catheter is cleared by flushing with 9 μl saline.
For these experiments, morphine, when given either as the sole drug or in combination with naltrexone to the rats, is administered to the rats at a dosage ranging from 1-30 micrograms, if given intrathecally. Naltrexone, when given either as the sole drug or in combination with morphine to the rats, is administered to the rats at a dosage ranging from 1 femtogram (fg) to 30 nanograms (ng) if given intrathecally. For other experiments, if given systemically, morphine, when given either as the sole drug or in combination with naltrexone to the rats, is administered to the rats at a dosage ranging from 1 mg/kg to 20 mg/kg. If given systemically, naltrexone, when given either as the sole drug or in combination with morphine to the rats, is administered to the rats at a dosage ranging from 1 femtogram to 300 nanograms. Administration of drug or vehicle to the rat is performed, for example, both on a BID or QID basis. For these experiments, morphine sulfate is purchased from Sigmia (St. Louis, Mo.) and naltrexone hydrochloride is purchased from Tocris (Ellisville, Mo.). These substances are dissolved in sterile 0.9% physiological saline from Baxter (Deerfield, Ill.).

[2] = test system: rats with L5/L6 spinal nerve ligation (SNL); conditions: morphine given alone by the intrathecal route; stated as well known; cited from earlier work
[3] = test system: rats with L5/L6 spinal nerve ligation (SNL); test: tactile allodynia: paw-withdrawal threshold to von Frey filaments, rat L5/L6 spinal nerve ligation (SNL) model; assay type: in vivo; conditions: naltrexone 0.1 ng alone, intrathecal twice daily; initial study
Experimental: as §1
In an initial study, the effects of intrathecally delivered morphine and naloxone or morphine alone are tested after ligation of the L5 and L6 spinal nerves in rats. […] Animal baseline withdrawals from thermal and tactile stimuli are recorded. […]
While under halothane anesthesia, an 8 cm length of 32 gauge tubing is inserted in the Sprague-Dawley rats to the level of the lumbar enlargement via an incision made in the atlanto-occipital membrane. […] Progress of the injection is determined by observing the movement of an air bubble through a calibrated length of the tubing. […]

Row | SMILES | antihyperalgesia ([1]; morphine 10 μg alone, day 8 after SNL (= Day 1 of administration), initial study) [%] | antihyperalgesia ([1]; morphine 10 μg alone, day 9 after SNL (= Day 2), initial study) [%] | antihyperalgesia (activity) ([1]; morphine 10 μg alone, day 11 after SNL (= Day 4), initial study) [%] | tolerance to the antihyperalgesia effect ([1]; morphine 10 μg alone, initial study (day 11 after SNL = Day 4)) | antihyperalgesia, return to baseline ([1]; morphine 10 μg alone, initial study (day 12 after SNL = Day 5)) | antiallodynic effect [2] | effect on antihyperalgesia ([1]; naltrexone 0.1 ng alone, initial study) | effect on allodynia [3]
1 | CN1CC[C@]23c4c5ccc(O)c4O[C@H]2[C@@H](O)C=C[C@H]3[C@H]1C5 [morphine] | 65 | 73 | 38 | tolerance to the antihyperalgesia effect by day 11; also recorded: tolerance to the anti-hyperalgesia effect by Day 4 | return to baseline by day 12; also recorded: return to baseline by day 5 | no antiallodynic effect | – | –
2 | O=C1CC[C@@]2(O)[C@H]3Cc4ccc(O)c5c4[C@@]2(CCN3CC2CC2)[C@H]1O5 [naltrexone] | – | – | – | – | – | – | no effect | no effect
